Measurements taken from patent US4959368A, “Therapeutic agent for neurological diseases” (Mitsui Petrochemical Industries Ltd., priority 1986, dated 1990).
Where two headings read alike, the source gives them in different places.

Key:
[1] = system: mouse neuroblastoma cell line neuro-2a; test: Activity on neuro-2a, cells with outgrown neurites; assay type: cell-based
Summary of the method: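 Mouse neuro-2a cells in DMEM with FCS exposed to compounds for 24 h (up to 6 concentrations, triplicate runs), glutaraldehyde-fixed and methylene blue-stained. Proportion of cells bearing a neurite at least twice the cell's long diameter counted microscopically over ≥200 cells.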

mice = test: Acute toxicity, mouse; assay type: in vivo; conditions: 24 hours
Protocol: (§1) The acute toxicity of the compounds of the invention was examined by the following method.
(§2) Male ddy-strain 5-week old mice and male Wistar-strain 8 week old rats, five per group, were used as experimental animals. Each of the compounds was dissolved in saline and administered perorally, and the toxicity of the compound was assessed 24 hours after the administration.

Acute toxicity, mouse = assay type: in vivo; conditions: in vivo, po, read-out: Presumed LD50
Protocol: as §1, §2

[2] = Table 3 Run No. 4, 0.1 mM, control 3.1 ± 0.2
[3] = Table 3 Run No. 4, 0.5 mM, control 3.1 ± 0.2
[4] = Table 3 second Run No. 5, 0.3 mM, control 4.5 ± 0.3
[5] = Table 3 second Run No. 5, 0.5 mM, control 4.5 ± 0.3

| Compound | Cells having neurites with a length at least twice the long diameter of cell/total number of cells [1, 2] | Cells having neurites with a length at least twice the long diameter of cell/total number of cells [1, 3] | Cells having neurites with a length at least twice the long diameter of cell/total number of cells [1, 4] | Cells having neurites with a length at least twice the long diameter of cell/total number of cells [1, 5] | LD50 at 24 h (Acute toxicity, mouse; Table 7, p.o.) | Number of dead animals/number of test animals (mice; Table 7, 1000 mg/kg p.o.) | Number of dead animals/number of test animals (mice; Table 6, 300 mg/kg p.o.) | Number of dead animals/number of test animals (mice; Table 6, 500 mg/kg p.o.) | Number of dead animals/number of test animals (mice; Table 6, 1000 mg/kg p.o.) | LD50 at 24 h (Acute toxicity, mouse; Table 6, p.o.) | further results |
| --- | --- | --- | --- | --- | --- | --- | --- | --- | --- | --- | --- |
| CN1C(=O)Cc2cnc(N3CCNCC3)nc21 [Compound 406] | 16.2 ± 3.7% | 44.8 ± 0.8% | 18.4 ± 3.0% | 32.4 ± 4.3% | > 1000 mg/kg | – | – | – | – | – | Cells having neurites with a length at least twice the long diameter of cell/total number of cells ([1]; Table 3 Run No. 4, 0.3 mM, control 3.1 ± 0.2): 29.9 ± 2.6%; Cells having neurites with a length at least twice the long diameter of cell/total number of cells ([1]; Table 3 Run No. 7, 0.1 mM, control 2.5 ± 0.7): 10.3 ± 1.6%; Cells having neurites with a length at least twice the long diameter of cell/total number of cells ([1]; Table 3 Run No. 7, 0.3 mM, control 2.5 ± 0.7): 22.6 ± 2.2%; Cells having neurites with a length at least twice the long diameter of cell/total number of cells ([1]; Table 3 Run No. 7, 0.5 mM, control 2.5 ± 0.7): 40.2 ± 3.4%; Cells having neurites with a length at least twice the long diameter of cell/total number of cells ([1]; Table 3 second Run No. 5, 0.03 mM, control 4.5 ± 0.3): 7.6 ± 1.8%; Number of dead animals/number of test animals (mice; Table 7, 1000 mg/kg p.o., 1000 mg/kg): 1/5 |
| O=C1Cc2cnc(N3CCNCC3)nc2N1 [Compound 424] | – | – | – | – | > 1000 mg/kg | 0/5 | – | – | – | – | Cells having neurites with a length at least twice the long diameter of cell/total number of cells ([1]; Table 3 first Run No. 5, 0.5 mM, no control given): 12.6 ± 1.1%; Cells having neurites with a length at least twice the long diameter of cell/total number of cells ([1]; Table 3 first Run No. 5, 1 mM, no control given): 27.1 ± 2.1% |
| CCCn1ccc2nc(N3CCNCC3)ncc2c1=O [Compound 715] | – | – | – | – | – | – | 0/5 | 0/5 | 4/5 | 550 to 1000 mg/kg | – |
| COCCN1C(=O)Cc2cnc(N3CCNCC3)nc21 [Compound 428] | 13.7 ± 2.1% | 27.2 ± 3.1% | 9.8 ± 2.3% | 14.1 ± 1.5% | > 1000 mg/kg | 0/5 | – | – | – | – | Cells having neurites with a length at least twice the long diameter of cell/total number of cells ([1]; Table 3 Run No. 3, 0.03 mM, control 3.9 ± 0.3): 6.7 ± 1.5%; Cells having neurites with a length at least twice the long diameter of cell/total number of cells ([1]; Table 3 Run No. 3, 0.3 mM, control 3.9 ± 0.3): 17.3 ± 0.8%; Cells having neurites with a length at least twice the long diameter of cell/total number of cells ([1]; Table 3 Run No. 3, 1 mM, control 3.9 ± 0.3): 30.1 ± 2.4%; Cells having neurites with a length at least twice the long diameter of cell/total number of cells ([1]; Table 3 Run No. 4, 1 mM, control 3.1 ± 0.2): 29.1 ± 2.4%; Cells having neurites with a length at least twice the long diameter of cell/total number of cells ([1]; Table 3 second Run No. 5, 1 mM, control 4.5 ± 0.3): 15.6 ± 1.0% |
| CCOC(=O)c1cnc(N2CCNCC2)nc1N [Compound 120] | – | – | – | – | – | – | 0/5 | 1/5 | 4/5 | 550 to 1000 mg/kg | Cells having neurites with a length at least twice the long diameter of cell/total number of cells ([1]; Table 3 Run No. 2, 0.1 mM, control 1.9 ± 0.9): 10.2 ± 3.7%; Cells having neurites with a length at least twice the long diameter of cell/total number of cells ([1]; Table 3 Run No. 10, 0.003 mM, control 1.7 ± 0.7): 2.6 ± 0.6%; Cells having neurites with a length at least twice the long diameter of cell/total number of cells ([1]; Table 3 Run No. 10, 0.1 mM, control 1.7 ± 0.7): 6.5 ± 1.7% |
| CC(C)n1ccc2nc(N3CCNCC3)ncc2c1=O [Compound 713] | – | – | – | – | – | – | 0/5 | 0/5 | 2/5 | > 1000 mg/kg | – |
